The subject of one data set is washed human platelets. As to the kind of experiment: collagen-induced platelet aggregation in washed human platelets. It is filed as cell-based. The settings on record: 0.6 μg/mL collagen. On the procedure: The collagen-induced platelet aggregation was detected by using washed human platelets. […] The platelet washing method was as follows: a. 1.4 mL platelets (concentrated platelet plasma) were poured into each 1.5 mL EP tube, and centrifuged at 400 g under room temperature for 5 min, and the supernatant was discarded; b. the platelets in each tube were resuspended with 0.5 mL of a tyrode A solution, and two tubes of resuspended platelets were combined into a new 1.5 mL EP tube, mixed well and centrifuged at 400 g under room temperature for 5 min; c. the platelets in each tube were resuspended with 1 mL of the tyrode A solution, transferred into a new EP tube, and centrifuged at room temperature at 400 g under room temperature for 5 min; d. the platelets in each tube were resuspended with 1 mL of a tyrode B solution, and the platelets were adjusted to an appropriate concentration with the tyrode B solution.

For the next data set, the system named is Healthy human platelets. As to the kind of experiment: ADP-induced platelet aggregation in PRP. The settings on record: 70 μmol/L ADP; for concentration dependence of inhibition of ADP-induced platelet aggregation: FIGS. 3 and 4. It is filed as cell-based. On the procedure:
Healthy human platelets were diluted with plasma to 2.5×10^8 platelets per mL. 300 μL of plasma-rich platelets was taken, added into different concentrations of samples at 37° C. and maintained at this temperature for 5 min, then added with 70 μmol/L ADP to induce aggregation, and an aggregation curve within 5 min was plotted on a platelet aggregation instrument. Platelet aggregation without sample treatment was used as a control.
300 μM of 3-methoxydaidzein could inhibit about 50% of platelet aggregation, while 100 μM of 3,4,7-trihydroxyisoflavone could inhibit about 50% of platelet aggregation.

A further data set has as its system mouse-tail thrombus. Nature of the data set: carrageenan-induced mouse-tail thrombosis model. It is filed as in vivo, Kunming mice. The settings on record: 24 h; for rate of thrombus inhibition versus dose: gavage 33, 100 and 300 μmol/kg; for rate of thrombus inhibition versus dose / inhibition of thrombosis in mouse tail versus negative control: carrageenan 40 mg/kg i.p. On the procedure:
This embodiment relates to a carrageenan-induced mouse-tail thrombosis model.
The experiment animals, male Kunming mice, each with a body weight of 20-25 g, were randomly divided into groups (n=10) after fed for one week. The first group was a DMSO control group, the sample groups were gavaged with 3,4,7-trihydroxyisoflavone and 3-methoxydaidzein at concentrations respectively of 33, 100 and 300 μmol/kg, and the positive control was gavaged with 300 μmol/kg clopidogrel. 30 min after intragastric administration, carrageenan (type I, Sigma) was injected intraperitoneally into the mice at a dose of 40 mg/kg. Since the rate of thrombosis was >90% at a low temperature, the feeding temperature was 18° C. After 24 h, the mean length of thrombosis was determined according to the color change of the tail skin.

Data set [1] has as its system tail bleeding time of the mouse. Nature of the data set: evaluation of bleeding risk, tail bleeding time. It is filed as in vivo, C57BL/6 mice. The settings on record: 80 mg/kg by gavage; 3, 6 and 12 hours after administration; mice. On the procedure: This embodiment relates to an evaluation of bleeding risk of 3,4,7-trihydroxyisoflavone and 3-methoxydaidzein.
Each group included 8 male C57BL/6 (18-20 g). The test sample group and the control group were administered by gavage. After 3, 6 and 12 hours of administration, the mice were placed into a self-made special holder to make the tails pass through a trimmed 1 mL pipette tip. 5 mm of the tail tip was cut off with a sterilized razor blade, and the mouse tail was immediately immersed into normal saline at 37° C. The bleeding time of the tail was observed by using the bloodstream stop time as an indicator.

The values that follow come from patent publication US20190183851A1, “USE OF 3,4,7-TRIHYDROXYISOFLAVONE OR 3-METHOXYDAIDZEIN IN PREPARATION OF DRUG FOR INHIBITING PLATELET AGGREGATION AND THROMBOSIS” (Kunming Institute of Zoology, Chinese Academy of Sciences, priority 2017, published 2019).

The structures appear in SMILES notation.

For `O=c1c(-c2ccc(O)c(O)c2)coc2cc(O)ccc12` [3,4,7-trihydroxyisoflavone], the “concentration dependence of inhibition of collagen-induced platelet aggregation” value in the data set with washed human platelets (FIGS. 1 and 2) was “gradient-dependent manner”. In addition, the “inhibition of platelet aggregation” value with washed human platelets (20 μM compound, washed human platelets) was “completely inhibit”. In addition, in the data set on Healthy human platelets, the “concentration dependence of inhibition of ADP-induced platelet aggregation” value is “gradient-dependent manner”. The inhibition at 100 µM with Healthy human platelets (Homo sapiens, Platelet, 100 μM compound) was around 50%. Further, the “average thrombus length compared with clopidogrel” value in the data set on mouse-tail thrombus (gavage 300 μmol/kg, compared with 300 μmol/kg clopidogrel) is on record as “shorter than that of the group gavaged with 300 μmol/kg of clopidogrel”. Moreover, the “rate of thrombus inhibition versus dose” value in the data set with mouse-tail thrombus is recorded as “increased along with the increase of concentration”. The “inhibition of thrombosis in mouse tail versus negative control” value with mouse-tail thrombus (oral 100 μmol/kg) is listed as “significantly inhibit”. Further, in data set [1], the “tail bleeding activity versus non-administrated group (FIG. 8)” value is “did not show any significant bleeding activity”.
Turning to `COc1cc(-c2coc3cc(O)ccc3c2=O)ccc1O` [3-methoxydaidzein], in the data set with washed human platelets (Platelet, 20 μM compound, washed human platelets), the inhibition at 20 µM was around 50%. In addition, in the data set with Healthy human platelets, the “concentration dependence of inhibition of ADP-induced platelet aggregation” value is “gradient-dependent manner”. Also, in the data set on Healthy human platelets (Homo sapiens, Platelet, 300 μM compound), the inhibition at 300 µM is around 50%. In addition, the “rate of thrombus inhibition versus dose” value with mouse-tail thrombus is listed as “increased along with the increase of concentration”. Moreover, the “inhibition of thrombosis in mouse tail versus negative control” value in the data set with mouse-tail thrombus (oral 300 μmol/kg) is given as “significantly inhibit”. The “tail bleeding activity versus non-administrated group (FIG. 9)” value in data set [1] is listed as “did not show any significant bleeding activity”.
Consider `COC(=O)[C@H](c1ccccc1Cl)N1CCc2sccc2C1` [clopidogrel, reference compound], for which, in data set [1], the “tail bleeding activity versus non-administrated group (FIG. 8)” value is “increased bleeding significantly” and the “tail bleeding activity versus non-administrated group (FIG. 9)” value was “increased bleeding significantly”.
